Measurements published in patent publication US20110183978A1, “Phenylpyri(mi)dinylazoles” (Bayer CropScience AG, priority 2009, published 2011).
Read-outs that look alike come from different tables or passages of the source.

Key:
[1] = pH 2.7
Peronospora parasitica = experiment: Example A: in vivo test on Peronospora parasitica (downy mildew on white cabbage); details: Hyaloperonospora parasitica, 120 h, cabbage plants sprayed 24 hours before inoculation, scored after 5 days, read-out: % Wirkungsgrad
Method in brief: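 Protective spray test: inoculation with 50,000 spores/ml P. parasitica suspension followed 24 h after compound application to cotyledon-stage cabbage (variety Eminence). Plants kept moist at about 20 °C for 5 days and then rated versus controls sprayed without active substance.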

Botrytis cinerea [2] = experiment: Example B: in vivo test on Botrytis cinerea (grey mould on cucumbers); details: cucumber plants sprayed 24 hours before inoculation, scored after 5-7 days, read-out: % Wirkungsgrad
Protocol: In Vivo Test on Botrytis Cinerea (Grey Mould on Cucumbers) An aqueous suspension of the active substance was prepared by homogenization of a mixture of acetone/Tween/dimethyl sulphoxide and subsequent dilution with water to the desired concentration. Cucumber plants (variety: Vert petit de Paris) are sown in cultivation dishes on a peat-pozzolanic earth substrate (50/50) at 18-20° C. and sprayed at the cotyledon stage Z11 with the aqueous suspension described above. As a control, plants are sprayed with an aqueous solution with no active substance. […] The spores are derived from a 15 day-old culture which are suspended in the following nutrient solution: • 20 g/l gelatine • 50 g/l D-fructose • 2 g/l NH4NO3 • 1 g/l KH2PO4 The inoculated cucumber plants are kept for 5-7 days in a climatic chamber at […] After 5-7 days they are scored in comparison with the control plants.

Alternaria brassicae = experiment: Example C: in vivo test on Alternaria brassicae (leaf spot disease on radishes); details: 500 ppm; radish plants sprayed 24 hours before inoculation; scored after 6-7 days
Protocol: In Vivo Test on Alternaria Brassicae (Leaf Spot Disease on Radishes) An aqueous suspension of the active substance was prepared by homogenization of a mixture of acetone/Tween/dimethyl sulphoxide and subsequent dilution with water to the desired concentration. Radish plants (variety: Pernot) are sown in cultivation dishes on a peat-pozzolanic earth substrate (50/50) at 18-20° C. and sprayed at the cotyledon stage with the aqueous suspension described above. As a control, plants are sprayed with an aqueous solution with no active substance. After 24 hours, the plants are inoculated by spraying with an aqueous suspension of Alternaria brassicae spores (40,000 spores per ml). The spores are derived from a 12 to 13 day-old culture. The inoculated radish plants are incubated for 6-7 days at ca. 18° C. in a humid atmosphere. After 6-7 days they are scored in comparison with the control plants.

Sphaerotheca fuliginea = experiment: Example D: in vivo test on Sphaerotheca fuliginea (powdery mildew on cucumber); details: Podosphaera fuliginea, 288 h, cucumber plants sprayed 24 hours before inoculation, scored after 12 days, read-out: % Wirkungsgrad
Method in brief: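 Scoring took place 12 days after spore inoculation (100,000 spores/ml, at ca. 20/25° C., 60/70% RH) and was made against plants sprayed without active substance. Inoculation followed by 24 hours a spray of water-diluted acetone/Tween/DMSO compound suspension onto Z10 cotyledon-stage cucumbers.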

[3] = test system: Mycosphaerella graminicola; experiment: Example G: in vivo test on Mycosphaerella graminicola (wheat leaf blotch disease); details: Zymoseptoria tritici, wheat plants sprayed 24 hours before inoculation, scored after 21 to 28 days, read-out: % Wirkungsgrad
Method in brief: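 Scipion wheat at first-leaf stage (10 cm) was sprayed with aqueous active-substance suspension, then inoculated 24 hours later with Mycosphaerella graminicola spores (500,000 spores per ml) from 7 day-old culture. Disease was scored after 21 to 28 days against untreated sprayed controls.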

Alternaria solani = experiment: Example M: in vivo test on Alternaria solani (leaf blotch disease/tomato/protective); details: 168 h, tomato, protective, 500 ppm active substance, assessed 7 days after inoculation, read-out: % Wirkungsgrad (activity level)
Method in brief: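 Alternaria solani infection on tomato scored 7 days post-inoculation. Before inoculation, young plants received a protective spray at the stated application dose; formulation was compound mixed with N,N-dimethylformamide and emulsifier, water-diluted.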

physchem = details: LogPA (logP of the stated pure compound or, in a mixture, of the main isomer, 1-substituted 3-aryl-1H-pyrazole)
Puccinia recondita = experiment: Example F: in vivo test on Puccinia recondita (wheat brown rust); details: 240 h, wheat plants sprayed 24 hours before inoculation, scored after 10 days, read-out: % Wirkungsgrad
Protocol: In Vivo Test on Puccinia Recondita (Wheat Brown Rust) An aqueous suspension of the active substance was prepared by homogenization of a mixture of acetone/Tween/dimethyl sulphoxide and subsequent dilution with water to the desired concentration. Wheat plants (variety: Scipion) are sown in cultivation dishes on a peat-pozzolanic earth substrate (50/50) at 12° C. and sprayed at the first-leaf stage (10 cm size) with the aqueous suspension described above. As a control, plants are sprayed with an aqueous solution with no active substance. After 24 hours the plants are inoculated by spraying with an aqueous suspension of Puccinia recondita spores (100,000 spores per ml). The spores are derived from a 10 day-old infected wheat crop and are suspended in water with 2.5 ml/l Tween. […] After 10 days they are scored in comparison with the control plants.

Fusarium proliferatum = experiment: Example I: production of fumonisin FB1 by Fusarium proliferatum (microtitre plates); type: cell-based; details: 120 h
Fusarium graminearum = experiment: microbe, parasite or virus in culture; type: cell-based
Aspergillus parasiticus = experiment: microbe, parasite or virus in culture; type: cell-based; details: 168 h
Plasmopara viticola = experiment: Example N: in vivo test on Plasmopara viticola (downy mildew, vine/protective); details: 144 h, vine, protective, assessment 6 days after inoculation, read-out: % Wirkungsgrad
Method in brief: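 Assessment of downy mildew on vines took place 6 days post-inoculation, after 1 day of moist incubation. Before infection, the young plants received a protective spray of compound emulsified with alkylaryl polyglycol ethers and diluted with water to the stated application rate.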

Venturia inaequalis = experiment: Example O: in vivo test on Venturia inaequalis (apple scab/protective); details: 240 h, protective, assessment 10 days after inoculation, read-out: % Wirkungsgrad
Method in brief: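 Young plants received a preventive spray of compound formulated as an emulsifier-containing aqueous dilution at the given application rate, then were inoculated with apple scab fungus. Disease was scored 10 days post-inoculation.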

Botrytis cinerea [4] = experiment: Example P: in vivo test on Botrytis cinerea (gray mould on bean/protective); details: 48 h, bean, protective, 250 ppm active substance, assessed 2 days after inoculation, read-out: % Wirkungsgrad (activity level)
Method in brief: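 Infection blotch size on leaves was scored 2 days after placing 2 Botrytis-colonised agar pieces per leaf. Inoculation followed drying of a protective spray applied to young plants at the stated dosage. Spray was prepared by diluting compound with solvent and alkylaryl polyglycol ether emulsifier in water.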

Pyricularia oryzae = experiment: whole plant or invertebrate; type: in vivo; details: 120 h, read-out: % Activity level
Cochliobolus miyabeanus = experiment: Example X: in vivo test on Cochliobolus miyabeanus (brown spot disease, rice/protective); details: Bipolaris oryzae, 96 h, read-out: % Activity level
[5] = Fusarium proliferatum growth, OD 620, 5 days, read-out: % Inhibition des Pilzwachstums bei 50 μM
[6] = Fusarium proliferatum, 5 days at 20° C., HPLC-MS/MS, read-out: % Inhibition der FB1 produktion bei 50 μM

Compound	pest or weed control at 500 ppm (Peronospora parasitica)	pest or weed control at 500 ppm (Botrytis cinerea [2])	% Activity level (Alternaria brassicae)	pest or weed control at 500 ppm (Sphaerotheca fuliginea)	pest or weed control at 500 ppm [3]	chromatographic logP (physchem)	pest or weed control at 500 ppm (Puccinia recondita)	also measured
4-[3-(4-fluorophenyl)-1-isobutyl-1H-pyrazol-4-yl]-N-isopropylpyrimidin-2-amine [[I-h-1]]	–	–	–	–	–	–	–	logP (pH 2.7) [1]: 1.81
CC(C)Cn1ncc(-c2ccncc2)c1-c1c(F)cccc1F [Compound 2]	85%	74%	77%	93%	98%	1.86	–	pest or weed control at 500 ppm (Alternaria solani): 100%
CCC(C)n1cc(-c2ccncc2)c(-c2c(F)cccc2F)n1 (stereo not shown) [Compound 3]	97%	–	88%	93%	95%	1.82	–	–
CC(C)n1ncc(-c2ccncc2)c1-c1c(F)cccc1F [Compound 10]	85%	73%	85%	80%	95%	1.54	–	–
COCC(=O)Nc1cc(-c2cn(C(C)C)nc2-c2ccc(F)cc2)ccn1 [Compound 40]	98%	100%	–	100%	81%	2.59	86%	inhibition at 50 µM (Fusarium proliferatum; [5]): 98%; inhibition at 50 µM (Fusarium proliferatum; [6]): 100%; inhibition at 50 µM (Fusarium graminearum; 72 h, read-out: % Inhibition des Pilzwachstums bei 50 μM): 100%; inhibition at 50 µM (Fusarium graminearum; 168 h, read-out: % Inhibition der DON/AcDON produktion bei 50 μM): 100%; inhibition at 50 µM (Aspergillus parasiticus; 50 μM, 7 days at 20° C., read-out: Inhibition der Aflatoxin produktion bei 50 μM): 99%; inhibition at 50 µM (Aspergillus parasiticus; read-out: % Inhibition des Pilzwachstums bei 50 μM): 88%; pest or weed control at 100 ppm (Plasmopara viticola): 72%; pest or weed control at 100 ppm (Venturia inaequalis): 97%; pest or weed control at 250 ppm (Botrytis cinerea [4]): 100%; pest or weed control at 250 ppm (Pyricularia oryzae): 95%; pest or weed control at 250 ppm (Cochliobolus miyabeanus): 85%
CC(C)n1cc(-c2ccnc3ccccc23)c(-c2ccc(F)cc2)n1 [Compound 44]	78%	71%	–	98%	81%	2.24	71%	inhibition at 50 µM (Fusarium proliferatum; [5]): 33%; inhibition at 50 µM (Fusarium proliferatum; [6]): 100%
NC(=O)c1cc(-c2cn(C3CCCCO3)nc2-c2ccc(F)cc2)ccn1 (stereo not shown) [Compound 93]	–	–	–	–	–	2.46	83%	–
